Legend:
Format in all cases: in vivo
[1] = system: Johnsongrass (Sorghum halepense); assay: Preemergence herbicidal activity, johnsongrass; settings: Rate of Application 0.3 Kg/Ha, examined after 12-17 days
[2] = system: common chickweed (Stellaria media); assay: Postemergence herbicidal activity, chickweed; settings: rate of application 0.3 Kg/Ha, rated after 12-17 days
[3] = system: blackgrass (Aloepecurus myosuroides); assay: Postemergence herbicidal activity, blackgrass; settings: rate of application 0.3 Kg/Ha, rated after 12-17 days
[4] = system: common chickweed (Stellaria media); assay: Preemergence herbicidal activity, chickweed; settings: Rate of Application 0.3 Kg/Ha, examined after 12-17 days
[5] = system: field corn (Zea mays var. Pioneer 3732); assay: Postemergence herbicidal activity, corn; settings: rate of application 0.3 Kg/Ha, rated after 12-17 days
[6] = system: field corn (Zea mays var. Pioneer 3732); assay: Preemergence herbicidal activity, corn; settings: Rate of Application 0.3 Kg/Ha, examined after 12-17 days
[7] = system: green foxtail (Setaria viridis); assay: Postemergence herbicidal activity, green foxtail; settings: rate of application 0.3 Kg/Ha, rated after 12-17 days
[8] = system: wheat (Triticum aestivum var. Lew); assay: Preemergence herbicidal activity, wheat; settings: Rate of Application 0.3 Kg/Ha, examined after 12-17 days
[9] = system: soybean (Glycine max var. Winchester); assay: Preemergence herbicidal activity, soybean; settings: Rate of Application 0.3 Kg/Ha, examined after 12-17 days
[10] = system: common cocklebur (Xanthium strumarium L.); assay: Preemergence herbicidal activity, cocklebur; settings: Rate of Application 0.3 Kg/Ha, examined after 12-17 days
[11] = system: green foxtail (Setaria viridis); assay: Preemergence herbicidal activity, green foxtail; settings: Rate of Application 0.3 Kg/Ha, examined after 12-17 days
[12] = system: velvetleaf (Abutilon theophrasti); assay: Postemergence herbicidal activity, velvetleaf; settings: rate of application 0.3 Kg/Ha, rated after 12-17 days
[13] = system: common cocklebur (Xanthium strumarium L.); assay: Postemergence herbicidal activity, cocklebur; settings: rate of application 0.3 Kg/Ha, rated after 12-17 days
[14] = system: soybean (Glycine max var. Winchester); assay: Postemergence herbicidal activity, soybean; settings: rate of application 0.3 Kg/Ha, rated after 12-17 days
[15] = system: blackgrass (Aloepecurus myosuroides); assay: Preemergence herbicidal activity, blackgrass; settings: Rate of Application 0.3 Kg/Ha, examined after 12-17 days
[16] = system: Johnsongrass (Sorghum halepense); assay: Postemergence herbicidal activity, johnsongrass; settings: rate of application 0.3 Kg/Ha, rated after 12-17 days
[17] = system: morningglory (Ipomea lacunosa or Ipomea hederacea); assay: Preemergence herbicidal activity, morningglory; settings: Rate of Application 0.3 Kg/Ha, examined after 12-17 days
[18] = system: wheat (Triticum aestivum var. Lew); assay: Postemergence herbicidal activity, wheat; settings: rate of application 0.3 Kg/Ha, rated after 12-17 days
[19] = system: morningglory (Ipomea lacunosa or Ipomea hederacea); assay: Postemergence herbicidal activity, morningglory; settings: rate of application 0.3 Kg/Ha, rated after 12-17 days
[20] = system: velvetleaf (Abutilon theophrasti); assay: Preemergence herbicidal activity, velvetleaf; settings: Rate of Application 0.3 Kg/Ha, examined after 12-17 days

Structure (SMILES)	PREEMERGENCE HERBICIDAL ACTIVITY (% CONTROL) SORHA [1] [%]	Postemergence herbicidal activity (% control) STEME [2] [%]	Postemergence herbicidal activity (% control) ALOMY [3] [%]	PREEMERGENCE HERBICIDAL ACTIVITY (% CONTROL) STEME [4] [%]	Postemergence herbicidal activity (% control) CRN [5] [%]	PREEMERGENCE HERBICIDAL ACTIVITY (% CONTROL) CRN [6] [%]	Postemergence herbicidal activity (% control) SETVI [7] [%]	PREEMERGENCE HERBICIDAL ACTIVITY (% CONTROL) WHT [8] [%]	PREEMERGENCE HERBICIDAL ACTIVITY (% CONTROL) SOY [9] [%]	PREEMERGENCE HERBICIDAL ACTIVITY (% CONTROL) XANPE [10] [%]	PREEMERGENCE HERBICIDAL ACTIVITY (% CONTROL) SETVI [11] [%]	Postemergence herbicidal activity (% control) ABUTH [12] [%]	Postemergence herbicidal activity (% control) XANPE [13] [%]	Postemergence herbicidal activity (% control) SOY [14] [%]	PREEMERGENCE HERBICIDAL ACTIVITY (% CONTROL) ALOMY [15] [%]	Postemergence herbicidal activity (% control) SORHA [16] [%]	PREEMERGENCE HERBICIDAL ACTIVITY (% CONTROL) IPOSS [17] [%]	Postemergence herbicidal activity (% control) WHT [18] [%]	Postemergence herbicidal activity (% control) IPOSS [19] [%]	PREEMERGENCE HERBICIDAL ACTIVITY (% CONTROL) ABUTH [20] [%]
Cn1c(C(F)(F)F)cc(=O)n(-c2c(F)cc(Cl)c3[nH]c(C45CC6CC(CC(C6)C4)C5)nc23)c1=O [Compound 374]	75	80	25	90	30	10	80	0	30	80	100	100	100	80	40	60	95	25	95	100
Cn1c(C(F)(F)F)cc(=O)n(-c2c(F)cc(Cl)c3nc(-c4ccccc4)[nH]c23)c1=O [Compound 375]	95	100	90	95	90	90	80	30	80	80	100	100	100	95	80	100	80	40	95	100
Cn1c(C(F)(F)F)cc(=O)n(-c2c(F)cc(Cl)c3c2nc(C(F)(F)F)n3C)c1=O [Compound 399]	0	100	50	100	70	95	70	80	95	70	100	100	100	95	60	60	95	30	100	100
CCOC(=O)c1cc2c(-n3c(=O)cc(C(F)(F)F)n(C)c3=O)c(F)cc(Cl)c2[nH]1 [Compound 493]	100	80	65	100	90	90	100	70	80	70	100	100	100	95	75	100	100	60	100	100
CCOC(=O)c1cc2c(-n3c(=O)cc(C(F)(F)F)n(C)c3=O)c(F)cc(Cl)c2n1C [Compound 522]	100	100	50	100	90	80	100	40	90	50	100	100	100	90	75	100	100	45	100	100

From US6352958B1, “Cycloimido-substituted benzofused heterocyclic herbicides” (FMC Corporation, priority 1997, dated 2002)
